The source of these data is ChEMBL document CHEMBL1136947, “Exploration of novel thiobarbituric acid-, rhodanine- and thiohydantoin-based HIV-1 integrase inhibitors” (Bioorg Med Chem Lett, 2009).

As usually defined, the CC50 is the concentration that lowers cell viability or growth by half. A low value points to greater toxicity to the cells. A word on the IC50: it is the midpoint of a concentration-inhibition curve. By EC50 is commonly meant the concentration at which the effect is half-maximal.

Where only a bound is given, the exact number is not on record here.

A short description of data set [1]: Cytotoxicity against human MT4 cells by MTT method. Type of data set: cell-based. (In general: Tetrazolium dyes change colour on reduction, which living cells bring about.)
Data set [2] deals with T1, Human immunodeficiency virus type 1 integrase (Human immunodeficiency virus 1, UniProt Q7ZJM1). The data set is described as follows: Inhibition of HIV1 integrase using labelled oligonucleotide substrate by ELISA. A general note: An ELISA detects its analyte on a solid surface through an enzyme-linked reagent.
T1 sequence (Q7ZJM1 whole entry): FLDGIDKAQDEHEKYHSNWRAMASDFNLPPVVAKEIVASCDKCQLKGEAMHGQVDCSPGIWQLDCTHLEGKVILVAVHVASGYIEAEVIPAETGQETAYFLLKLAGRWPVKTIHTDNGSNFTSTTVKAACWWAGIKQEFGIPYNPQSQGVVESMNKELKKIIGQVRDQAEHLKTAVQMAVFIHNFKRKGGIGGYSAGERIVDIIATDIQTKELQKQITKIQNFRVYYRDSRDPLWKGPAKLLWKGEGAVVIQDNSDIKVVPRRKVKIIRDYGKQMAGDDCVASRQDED
In data set [3] the target is T1, Human immunodeficiency virus type 1 integrase. The data set is described as follows: Inhibition of HIV1 integrase 3'-processing activity using labelled oligonucleotide substrate by ELISA.
Data set [4] concerns Human immunodeficiency virus 1. As to the kind of experiment: Antiviral activity against HIV1 3B infected in human MT4 cells assessed as reduction of virus-induced cytopathogenicity by MTT assay. Conditions: Human immunodeficiency virus 1, 3B. Type of data set: functional, organism-based. (In general: Protection from cytopathic effect is a common read-out in antiviral testing.)

In data set [5] the target is T1, Human immunodeficiency virus type 1 integrase. As to the kind of experiment: Inhibition of HIV1 integrase strand transfer activity using labelled oligonucleotide substrate by ELISA.
Data set [6] can be described thus: Therapeutic index, ratio of CC50 for human MT4 cells to EC50 for HIV1 3B. In kind it is cell-based. Particulars: read-out: Ratio CC50/EC50.

For the molecule `COc1cc(C(=O)O)cc(OC)c1-c1ccc(C=C2C(=O)NC(=S)NC2=O)o1`, in data set [1], the CC50 was found to be 61.1 µM. For the same molecule, the figures for the IC50 in data set [2] and in data set [3] were 167 µM and greater than 250 µM, respectively. Also, the EC50 in data set [4] was greater than 61.1 µM.
For the molecule `O=C1NC(=S)NC(=O)C1=Cc1ccc(-c2ccc(C(=O)O)c(O)c2)o1`, the IC50 in data set [5] came out at 69.2 µM; in data set [2], 8.94 µM; in data set [3] it was 2.74 µM. In data set [1], this molecule yielded a half-maximal cytotoxic concentration (CC50) of 60 µM. In data set [6], the selectivity ratio came to 2. For the same molecule, in data set [4], the EC50 was determined as 30 µM.
In the case of `O=C1NC(=S)NC(=O)C1=Cc1ccc(-c2ccc(O)c(C(=O)O)c2)o1`, the midpoint of cytotoxicity in data set [1], the CC50, lay at 222 µM. For the same molecule, the IC50 in data set [2] was found to be 33.4 µM; in data set [3], 53 µM. Moreover, the EC50 in data set [4] is greater than 222 µM.
Molecule `COc1cc(-c2ccc(/C=C3\SC(=S)NC3=O)o2)c(Cl)cc1C(=O)O` gave a CC50 in data set [1] of 143 µM. In addition, the IC50 in data set [2] and in data set [3] was greater than 250 µM throughout. Also, in data set [4], the 50% effective concentration (EC50) was greater than 143 µM.
In the case of `Cc1c(-c2ccc(C=C3C(=O)NC(=S)NC3=O)o2)cccc1[N+](=O)[O-]`, half-maximal cytotoxicity in data set [1] (CC50) was put at 17.9 µM. For the same molecule, the results for the IC50 in data set [2] and in data set [3] were 58.4 µM and 40.8 µM, respectively. Also, in data set [4], the EC50 is greater than 17.9 µM.
As to `Cc1cc(-c2ccc(C(=O)O)c(O)c2)oc1C=C1C(=O)NC(=S)NC1=O`, in data set [1], the CC50 was greater than 125 µM. For the same molecule, the IC50 came out at 90.9 µM in data set [2] and 125 µM in data set [3]. In data set [4], the EC50 was greater than 125 µM.
`O=C1NC(=S)NC(=O)C1=Cc1ccc(-c2ccc(Cl)c(C(=O)O)c2)o1` yielded a CC50 in data set [1] of 152 µM. In addition, the IC50 in data set [2] turned out to be 41.7 µM; in data set [3] it was 12.9 µM. In addition, the EC50 in data set [4] was greater than 152 µM.
For the molecule `O=C1NC(=S)S/C1=C\c1ccc(-c2ccc(C(=O)O)c(O)c2)o1`, the values for the IC50 in data set [5], in data set [2] and in data set [3] were 97.7 µM, 182 µM and greater than 250 µM, respectively. This molecule registered a CC50 in data set [1] greater than 72 µM. Also, the selectivity ratio in data set [6] stood at 2. Also, in data set [4], the EC50 was 30.1 µM.
`Cc1nnc(C(=O)NC(C)(C)c2nc(C(=O)NCc3ccc(F)cc3)c(O)c(=O)n2C)o1` showed a CC50 in data set [1] of 143 µM. For the same molecule, the EC50 in data set [4] was 0.0064 µM.
On to `Cc1cc(-c2ccc(C(=O)O)c(O)c2)oc1/C=C1\NC(=S)NC1=O`, for which the IC50 in data set [2] and in data set [3] was greater than 250 µM each time.
In the case of `COc1cc(-c2ccc(C(=O)O)c(O)c2)oc1/C=C1\SC(=S)NC1=O`, in data set [1], the 50% cytotoxic concentration (CC50) is greater than 125 µM. Moreover, the IC50 in data set [2] and in data set [3] was greater than 250 µM in each case. Besides, in data set [4], the EC50 was determined as 112 µM.
With `O=C1NC(=S)NC(=O)C1=Cc1ccc(-c2cc(C(=O)O)cc(O)c2O)o1`, the IC50 is greater than 250 µM in data set [5], 5.06 µM in data set [2] and 5.79 µM in data set [3]. Besides, in data set [1], it took 138 µM to reach half-maximal cytotoxicity (CC50). The selectivity ratio in data set [6] came to 3. In addition, the EC50 in data set [4] turned out to be 54.7 µM.
`COc1cc(-c2ccc(C=C3C(=O)NC(=S)NC3=O)o2)c(Cl)cc1C(=O)O`: in data set [1], the midpoint of cytotoxicity, the CC50, lay at 100 µM. The IC50 in data set [2] worked out at 43.2 µM; in data set [3], 35.3 µM. In addition, the EC50 in data set [4] is greater than 100 µM.
For the molecule `O=C1NC(=S)S/C1=C\c1ccc(-c2cc(C(=O)O)cc(O)c2O)o1`, the IC50 amounted to 164 µM in data set [5], 15.5 µM in data set [2] and 22.3 µM in data set [3]. Further, it took 131 µM to reach half-maximal cytotoxicity in data set [1] (CC50). For the same molecule, the selectivity ratio in data set [6] turned out to be 7. For the same molecule, in data set [4], the EC50 was 18 µM.
In data set [1], `O=C1NC(=S)NC(=O)C1=Cc1ccc(-c2ccc(F)cc2C(=O)O)o1` showed a CC50 of 165 µM. For the same molecule, the IC50 was determined as 184 µM in data set [2] and 47.1 µM in data set [3]. Moreover, the EC50 in data set [4] is greater than 165 µM.
The molecule `O=C1NC(=S)N/C1=C\c1ccc(-c2ccc(C(=O)O)c(O)c2)o1` showed a CC50 in data set [1] of 193 µM. Also, the figures for the IC50 in data set [2] and in data set [3] were 107 µM and 74 µM, respectively. Besides, in data set [4], the EC50 is greater than 193 µM.
The corresponding values for `O=C1NC(=S)NC(=O)C1=Cc1ccc(-c2cc(C(=O)O)cc3c2OCO3)o1` are greater than 125 µM, 56.5 µM, 71.6 µM and greater than 125 µM.
For `Cc1ccc(C(=O)O)cc1-c1ccc(C=C2C(=O)NC(=S)NC2=O)o1`, the CC50 in data set [1] was 159 µM. For the same molecule, the IC50 came out at 46.4 µM in data set [2] and 25.4 µM in data set [3]. In addition, in data set [4], the EC50 is greater than 159 µM.
Take `Cc1cc(-c2ccc(C(=O)O)c(O)c2)oc1/C=C1\SC(=S)NC1=O`: the IC50 in data set [2] came to 158 µM; in data set [3] it was 135 µM.
For the molecule `O=C1NC(=S)N/C1=C\c1ccc(-c2ccc(O)c(C(=O)O)c2)o1`, the concentration for half-maximal inhibition (IC50) in data set [5] was greater than 250 µM; in data set [2], 50.9 µM; in data set [3], greater than 250 µM. The midpoint of cytotoxicity in data set [1], the CC50, lay at 152 µM. Besides, the selectivity ratio in data set [6] stood at 2. Besides, the EC50 in data set [4] came to 95.2 µM.
On to `O=C1NC(=S)NC(=O)C1=Cc1ccc(-c2cccc(C(=O)O)c2O)o1`, for which half-maximal cytotoxicity in data set [1] (CC50) was put at 140 µM. The IC50 in data set [2] and in data set [3] was greater than 250 µM throughout. In data set [4], the EC50 is greater than 140 µM.
As for `O=C1NC(=S)S/C1=C\c1ccc(-c2ccc(Cl)c(C(=O)O)c2)o1`, in data set [1], half-maximal cytotoxicity (CC50) was put at 155 µM. Further, the IC50 in data set [2] and in data set [3] was greater than 250 µM each time. In addition, in data set [4], the concentration giving a half-maximal response (EC50) is greater than 155 µM.
